In ChEMBL document CHEMBL3217615, “Novel 3,5-bis(arylidiene)-4-piperidone based monocarbonyl analogs of curcumin: anticancer activity evaluation and mode of action study” (2014):

Columns and labels:
Type in all cases: functional
[1] = system: ACHN; experiment: Growth inhibition of human ACHN cells assessed as cell growth at 10^-6 M after 48 hrs by sulforhodamine B assay; conditions: read-out: Activity
[2] = Growth inhibition of human HOP92 cells assessed as cell growth at 10^-4 M after 48 hrs by sulforhodamine B assay; conditions: HOP-92, 48 h, read-out: Activity
[3] = system: PC-3; experiment: Growth inhibition of human PC3 cells assessed as cell growth at 10^-4 M after 48 hrs by sulforhodamine B assay; conditions: PC-3, 48 h, read-out: Activity
[4] = system: Malme-3M; experiment: Growth inhibition of human MALME-3M cells after 48 hrs by sulforhodamine B assay
[5] = system: SR; experiment: Growth inhibition of human SR cells after 48 hrs by sulforhodamine B assay
[6] = system: SR; experiment: Growth inhibition of human SR cells assessed as cell growth at 10^-6 M after 48 hrs by sulforhodamine B assay; conditions: read-out: Activity
[7] = Growth inhibition of human UACC62 cells assessed as cell growth at 10^-4 M after 48 hrs by sulforhodamine B assay; conditions: UACC-62, 48 h, read-out: Activity
[8] = Growth inhibition of human HCC2998 cells assessed as cell growth at 10^-8 M after 48 hrs by sulforhodamine B assay; conditions: HCC 2998, 48 h
[9] = system: COLO 205; experiment: Growth inhibition of human COLO205 cells assessed as cell growth at 10^-7 M after 48 hrs by sulforhodamine B assay; conditions: COLO 205, 48 h, read-out: Activity
[10] = system: NCI-H522; experiment: Growth inhibition of human NCI-H522 cells assessed as cell growth at 10^-7 M after 48 hrs by sulforhodamine B assay; conditions: NCI-H522, 48 h, read-out: Activity
[11] = system: SR; experiment: Growth inhibition of human SR cells assessed as cell growth at 10^-4 M after 48 hrs by sulforhodamine B assay; conditions: read-out: Activity
[12] = system: RPMI-8226; experiment: Growth inhibition of human RPMI8226 cells assessed as cell growth at 10^-4 M after 48 hrs by sulforhodamine B assay; conditions: RPMI-8226, 48 h, read-out: Activity
[13] = Growth inhibition of human MOLT4 cells assessed as cell growth at 10^-6 M after 48 hrs by sulforhodamine B assay; conditions: MOLT-4, 48 h, read-out: Activity
[14] = Growth inhibition of human HCC2998 cells assessed as cell growth at 10^-6 M after 48 hrs by sulforhodamine B assay; conditions: HCC 2998, 48 h, read-out: Activity
[15] = Growth inhibition of human HOP92 cells assessed as cell growth at 10^-7 M after 48 hrs by sulforhodamine B assay; conditions: HOP-92, 48 h, read-out: Activity
[16] = Growth inhibition of human UACC62 cells assessed as cell growth at 10^-7 M after 48 hrs by sulforhodamine B assay; conditions: UACC-62, 48 h, read-out: Activity
[17] = system: MDA-MB-231; experiment: Growth inhibition of human MDA-MB-231 cells assessed as cell growth at 10^-6 M after 48 hrs by sulforhodamine B assay; conditions: MDA-MB-231, 48 h, read-out: Activity
[18] = Growth inhibition of human SF539 cells after 48 hrs by sulforhodamine B assay; conditions: SF-539, 48 h
[19] = Growth inhibition of human RXF393 cells assessed as cell growth at 10^-4 M after 48 hrs by sulforhodamine B assay; conditions: RXF 393, 48 h, read-out: Activity
[20] = Growth inhibition of human HOP92 cells assessed as cell growth at 10^-6 M after 48 hrs by sulforhodamine B assay; conditions: HOP-92, 48 h, read-out: Activity
[21] = system: IGROV-1; experiment: Growth inhibition of human IGROV1 cells after 48 hrs by sulforhodamine B assay; conditions: IGROV-1, 48 h
[22] = system: MDA-MB-231; experiment: Growth inhibition of human MDA-MB-231 cells assessed as cell growth at 10^-4 M after 48 hrs by sulforhodamine B assay; conditions: MDA-MB-231, 48 h, read-out: Activity
[23] = Growth inhibition of human UACC62 cells after 48 hrs by sulforhodamine B assay; conditions: UACC-62, 48 h
[24] = system: SF-268; experiment: Growth inhibition of human SF268 cells assessed as cell growth at 10^-6 M after 48 hrs by sulforhodamine B assay; conditions: SF-268, 48 h, read-out: Activity
[25] = Growth inhibition of human RXF393 cells assessed as cell growth at 10^-8 M after 48 hrs by sulforhodamine B assay; conditions: RXF 393, 48 h
[26] = system: NCI-H460; experiment: Growth inhibition of human NCI-H460 cells after 48 hrs by sulforhodamine B assay; conditions: NCI-H460, 48 h
[27] = Growth inhibition of human UACC257 cells assessed as cell growth at 10^-4 M after 48 hrs by sulforhodamine B assay; conditions: UACC-257, 48 h, read-out: Activity
[28] = system: KM12; experiment: Growth inhibition of human KM12 cells assessed as cell growth at 10^-4 M after 48 hrs by sulforhodamine B assay; conditions: KM12, 48 h, read-out: Activity
[29] = system: A549; experiment: Growth inhibition of human A549/ATCC cells assessed as cell growth at 10^-6 M after 48 hrs by sulforhodamine B assay; conditions: A549, 48 h, read-out: Activity
[30] = system: MDA-MB-468; experiment: Growth inhibition of human MDA-MB-468 cells assessed as cell growth at 10^-7 M after 48 hrs by sulforhodamine B assay; conditions: MDA-MB-468, 48 h, read-out: Activity
[31] = system: SNB-75; experiment: Growth inhibition of human SNB75 cells assessed as cell growth at 10^-6 M after 48 hrs by sulforhodamine B assay; conditions: SNB-75, 48 h, read-out: Activity
[32] = system: Malme-3M; experiment: Growth inhibition of human MALME-3M cells assessed as cell growth at 10^-8 M after 48 hrs by sulforhodamine B assay
[33] = system: HT-29; experiment: Growth inhibition of human HT-29 cells assessed as cell growth at 10^-6 M after 48 hrs by sulforhodamine B assay; conditions: HT-29, 48 h, read-out: Activity
[34] = system: U-251; experiment: Growth inhibition of human U251 cells assessed as cell growth at 10^-4 M after 48 hrs by sulforhodamine B assay; conditions: U-251, 48 h, read-out: Activity
[35] = Growth inhibition of human OVCAR5 cells after 48 hrs by sulforhodamine B assay; conditions: OVCAR-5, 48 h
[36] = read-out: LC50 (the source's name)
[37] = read-out: pLC50 (the source's name) (converted)

## Cc1ccc(S(=O)(=O)N2C/C(=C\c3cc(F)cc(F)c3)C(=O)/C(=C/c3cc(F)cc(F)c3)C2)cc1
[1]
  growth at 1 µM: -26%
[2]
  growth at 100 µM: -58%
[3]
  growth at 100 µM: -84%
[4]
  GI50: 274 nM
  TGI: 742 nM
[4]; [36]
  CC50: 3810 nM
[5]
  GI50: 34.8 nM
  TGI: 252 nM
[5]; [36]
  CC50: > 100000 nM
[6]
  growth at 1 µM: -20%
[7]
  growth at 100 µM: -98%
[8]
  GI50: 603 nM
[8]; read-out: Activity
  growth at 0.01 µM: 102%
[8]; [37]
  CC50: 4900 nM
[8]; read-out: pTGI (converted)
  TGI: 1910 nM
[9]
  growth at 0.1 µM: 106%
[10]
  growth at 0.1 µM: 102%
[11]
  growth at 100 µM: -30%
[12]
  growth at 100 µM: -50%
[13]
  growth at 1 µM: 8%
[14]
  growth at 1 µM: 35%
[15]
  growth at 0.1 µM: 69%
[16]
  growth at 0.1 µM: 93%
[17]
  growth at 1 µM: -11%
[18]
  GI50: 1210 nM
  TGI: 2870 nM
[18]; [36]
  CC50: 6810 nM
[19]
  growth at 100 µM: -95%
[20]
  growth at 1 µM: 55%
[21]
  GI50: 436 nM
  TGI: 1550 nM
[21]; [36]
  CC50: 5170 nM
[22]
  growth at 100 µM: -82%
[23]
  GI50: 212 nM
  TGI: 514 nM
[23]; [36]
  CC50: 1620 nM
[24]
  growth at 1 µM: 21%
[25]
  GI50: 724 nM
[25]; read-out: Activity
  growth at 0.01 µM: 96%
[25]; [37]
  CC50: 5130 nM
[25]; read-out: pTGI (converted)
  TGI: 2140 nM
[26]
  GI50: 828 nM
  TGI: 2870 nM
[26]; [36]
  CC50: 9220 nM
[27]
  growth at 100 µM: -84%
[28]
  growth at 100 µM: -88%
[29]
  growth at 1 µM: 86%
[30]
  growth at 0.1 µM: 83%
[31]
  growth at 1 µM: 82%
[32]
  GI50: 275 nM
  LC50: 3800 nM
[32]; read-out: Activity
  growth at 0.01 µM: 97%
[32]; read-out: pTGI (converted)
  TGI: 741 nM
[33]
  growth at 1 µM: -22%
[34]
  growth at 100 µM: -96%
[35]
  GI50: 1020 nM
  TGI: 2750 nM
[35]; [36]
  CC50: 7400 nM
